Laboratory results taken from patent US11667612B2, “Compositions and methods for delivering pharmaceutical agents” (Arizona Board of Regents on Behalf of the University of …, priority 2017, dated 2023).
“And” between values parts separate entries of the source, which are not always exact repeats. Equal entries are not always repeated.

Assays:
[1] = Karl Fischer coulometric titration, residual water content; assay type: physicochemical
[2] = Laser diffraction particle sizing and size distribution; assay type: physicochemical
Protocol: Particle size and size distributions of the particles were determined by laser diffraction with the SALD-7101 (Shimadzu Scientific Instruments, Japan) using conditions previously reported (Li X, Mansour H M., AAPS PharmSciTech. December 2011; 12(4):1420-1430; Meenach S A, et al., Int J Nanomedicine. 2013; 8:275-293; Wu X, et al., Drug design, development and therapy. 2013; 7:59-72; Wu X, et al., Int J Nanomedicine. 2013; 8:1269-1283) for measurement of the mean size and size distribution of SD particles in aqueous suspension. Samples were dispersed in ultrapure water and ultrasonicated for 10 s in water bath ultrasonicator Branson 7500 before measuring particle size. Sample particle dispersion was immediately transferred to particle size measuring cell and kept stirring during measurement in nano particle size analyzer. The low refractive index of 1.50-0.00i was used. Volume-based measurements were obtained. DV10, DV50, and DV90 were used as particle size characterization parameters. The span value was calculated using the equation defined as Span=[(DV90−DV10)/DV50] Equation 1. X-Ray Powder Diffraction (XRPD)

[3] = In vitro aerosol dispersion performance, Next Generation Impactor (NGI); assay type: physicochemical; details: for Emitted Fraction (%) / Emitted dose / Fine Particle Dose / Fine Particle Fraction (%) / GSD / MMAD / Respirable Dose / Respirable Fraction (%): NGI 60 L/min
Protocol: In accordance with US Pharmacopeia (USP) Chapter <601> specification on aerosols and using conditions similar to previously reported (Meenach S A, et al., AAPS PharmSciTech. 2014; 15(6):1574-1587; Muralidharan P, et al., Molecular Systems Design & Engineering. 2016), the in vitro aerosol dispersion properties of the dry powder particles were determined using the Next Generation Impactor® (NGI®) with a stainless steel induction port (USP throat) attachment (NGI® Model 170), equipped with specialized stainless steel NGI® gravimetric insert cups (MSP Corporation, Shoreview, Md., USA). The NGI® was coupled with a Copley TPK 2000 critical flow controller connected to a Copley HCP5 vacuum pump, and the airflow rate (Q), was measured and adjusted prior to each experiment using a Copley DFM 200 flow meter (Copley Scientific, UK).
The mass of powder deposited on each stage was quantified by a gravimetric method using type A/E glass fiber filters with diameter 55 mm (PALL Corporation, Port Washington, N.Y.) and 75 mm (Advance, Japan). Quali-V clear HPMC size 3 inhalation grade capsules (Qualicaps, North Carolina) filled with about 10 mg of powder were used. Three capsules were used in each experiment. In vitro aerosolization was done in triplicate (n=3) under ambient conditions. The NGI™ was operated at a flow rate of 601 min^1 with an actuation time of 10 s through the inhaler. The glass fiber filter was measured gravimetrically before and after actuation, on each stage, to determine the particle stage deposition. The fine particle dose (FPD), fine particle fraction (FPF), respirable fraction (RF), and emitted dose (ED) were calculated using the following equations:
[formula] [formula] [formula] The mass mean aerodynamic diameter (MMAD) and geometric standard deviation (GSD) of aerosol dispersion profiles were determined using a Mathematica (Wolfram Research Inc., Champaign, Ill.) program ((Meenach S A, et al., AAPS PharmSciTech. 2014; 15(6):1574-1587; Muralidharan P, et al., Molecular Systems Design & Engineering. 2016). The aerosol dispersion performance was tested using three FDA approved inhalers Handihaler®, Aerolizer®, and Neohaler®. In Vitro Cell Dose Response Assay
In accordance with US Pharmacopeia (USP) Chapter <601> specification on aerosols and using conditions similar to previously reported, the in vitro aerosol dispersion properties of the dry powder particles were determined using the Next Generation Impactor® (NGI®) with a stainless steel induction port (USP throat) attachment (NGI® Model 170), equipped with specialized stainless steel NGI® gravimetric insert cups (MSP Corporation, Shoreview, Md., USA). The NGI® was coupled with a Copley TPK 2000 critical flow controller connected to a Copley HCP5 vacuum pump, and the airflow rate (Q), was measured and adjusted prior to each experiment using a Copley DFM 200 flow meter (Copley Scientific, UK).
The mass of powder deposited on each stage was quantified by gravimetric method using type A/E glass fiber filters with diameter 55 mm (PALL Corporation, Port Washington, N.Y.) and 75 mm (Advance, Japan). Quali-V clear HPMC size 3 inhalation grade capsules (Qualicaps, North Carolina) filled with about 10 mg of powder were used. Three capsules were used in each experiment. In vitro aerosolization was done in triplicate (n=3) under ambient conditions. The NGI™ was operated at a flow rate of 601 min^−1 with a delay time of 10 s before actuation of the inhaler, followed by 10 s of airflow through the inhaler. The glass fiber filter was measured gravimetrically before and after actuation, on each stage, to determine the particle stage deposition. The fine particle dose (FPD), fine particle fraction (FPF), respirable fraction (RF), and emitted dose (ED) were calculated using the 3-6 equations:

[4] = test system: Calu-3 lung epithelial cells; assay: In vitro transepithelial electrical resistance (TEER) analysis; assay type: cell-based, human; details: Calu-3, AIC, 100 μM
Protocol: The cells were seeded at 500,000 cells/ml in Costar Transwells® (0.4 μm polyester membrane, 12 mm for a 12-well plate) with 0.5 ml of media on the apical side and 1.5 ml of media on the basolateral side. Media was changed every other day from the basolateral and apical side. After 10 days of growth, when the cells reached a TEER value of about 1000 Ω/cm^2 which is an indicator of a confluent monolayer at liquid covered culture (LCC) the media was removed from both sides and 800 μl of media was added to the basolateral side of the Transwells to facilitate air-interface culture (AIC) conditions. The TEER responses of the cells were measured with an Endohom 12 mm Culture Cup (World Precision Instruments, Sarasota, Fla.). […] TEER values were then recorded for up to 7 days after aerosol treatment, as previously reported (Meenach S A, 2014, supra; Meenach S A, et al., April 2016; 48(4):1701-1709).
The cells were seeded at 500,000 cells/ml in Costar Transwells® (0.4 μm polyester membrane, 12 mm for a 12-well plate) with 0.5 ml of media on the apical side and 1.5 ml of media on the basolateral side. […] The TEER responses of the cells were measured with an Endohom 12 mm Culture Cup (World Precision Instruments, Sarasota, Fla.). […] TEER values were then recorded for up to 7 days after aerosol treatment, as previously reported (Meenach et al., 2014, supra; Meenach et al., 2016, supra).

[5] = test system: monocrotaline (MCT) rat model of PH; assay: In vivo hemodynamic efficacy study in PH induced rats (monocrotaline model); design: species or system Sprague Dawley rats; details: for Right ventricle systolic pressure (RVSP): individual rats, inhaled dry powder 10 mg/kg for 14 days
Protocol: In vivo studies were conducted in a monocrotaline (MCT) rat model with the purpose of testing the efficacy of TMP in decreasing PH. A total of 30 male Sprague Dawley rats (280-350 g) were used in this study. Rats were purchased from Charles River Laboratories International Inc. (Wilmington, Mass.). Rats were weighted weekly to monitor their health. PH was induced by injecting 60 mg/kg of MCT via intraperitoneally. The animals were divided into 5 groups (n=5) into the following categories: 1) Naïve (control), 2) Naïve+TMP, 3) MCT (PH induced) 4) MCT+ treated with vehicle (air), 5) MCT+ treated with TMP. Two weeks after MCT administration, the rats started to get the treatment via aerosolization of a dry powder formulation of SD TMP (10 mg/kg) using a Penn Century Dry Powder Insufflator™—Model DP-4M for 14 days. Right ventricle systolic pressure (RVSP) hemodynamics were performed after 2 weeks and 4 weeks after MCT administration by inserting a customized pressure transducer catheter (SPR-513, Millar Instruments, Houston, Tex.), into the right ventricle (RV) via the right jugular vein and right atrium. The transducer was connected to a Millar Transducer Control Unit TC-510 and PL3504 PowerLab 4/35 data acquisition system (ADInstruments, Inc., Colorado Springs, Colo.). At the end of pressure recording, the animals were euthanized.

[6] = laser diffraction, aqueous suspension, volume-based
[7] = Aerolizer, listed as spray dried TMP
[8] = Handihaler, listed as spray dried TMP
[9] = Neohaler, listed as spray dried TMP

Protocol for A549 pulmonary cell line: (§1) Cell-based assays are often used to determine if test molecules have effects on cell proliferation or show direct cytotoxicity effects that eventually leads to cell death. The effects of TMP formulations were analyzed by measuring the response of lung adenocarcinoma cells at different concentrations of the drug. […] The H348 pulmonary cell line is a human bronchoalveolar epithelial cell line similar to alveolar type II cells and express lung surfactant associated protein A (SP-A) (Acosta M F, et al., Current pharmaceutical design. 2016; 22(17):2522-2531). […]
(§2) As previously reported (Acosta et al., 2014, supra), both cell lines were seeded in 96-well plates at 5000 cells/well and 100 μl/well and allowed to attach for 48 hours. […] At this point, the fluorescence intensity was detected at 544 nm (excitation) and 590 nm (emission) using a Synergy H1 Multi-Mode Reader (BioTek Instruments Inc., Winooski, Vt.).
(§3) Cell-based assays are often used to determine if test molecules have effects on cell proliferation or show direct cytotoxicity effects that eventually leads to cell death. The effects of TMP formulations were analyzed by measuring the response of lung adenocarcinoma cells at different concentrations of the drug. […]
Protocol for H358 pulmonary cell line: as §1, §2, §3

**Q.** For `Cc1nc(C)c(C)nc1C` [Raw TMP, tetramethylpyrazine, reference compound], which Residual water content [1] is on record?
**A.** Its Residual water content is 0.633 ± 0.251% w/w.

**Q.** And the “Effect on cell viability” value (H358 pulmonary cell line)?
**A.** The value was “decrease”.

**Q.** What does the source list for `Cc1nc(C)c(C)nc1C` [SD TMP, tetramethylpyrazine]?
**A.** Particle sizing span value ([2]; (Dv90-Dv10)/Dv50): 1.684±0.645; Particle size distribution (size range) ([2]; laser diffraction): 4-14 μm; Particle sizing Dv10 [2, 6]: 4.186±0.701 μm; Particle sizing Dv50 [2, 6]: 6.156±1.47 μm and 6.156 ± 1.147 μm; Particle sizing Dv90 [2, 6]: 14.552±4.928 μm; Residual water content [1]: 0.368±0.103 % w/w; Emitted Fraction (%) ([3]; Aerolizer): 88%; Emitted dose ([3]; Aerolizer): 79.98 mg; Fine Particle Dose ([3]; Aerolizer): 1.15 mg; Fine Particle Fraction (%) ([3]; Aerolizer): 1.41%; GSD ([3]; Aerolizer): 2.88; MMAD ([3]; Aerolizer): 15.23 μm; Respirable Dose ([3]; Aerolizer): 8.16 mg; Respirable Fraction (%) ([3]; Aerolizer): 14.86 ± 8.0%; Emitted Fraction (%) [3, 7]: 88.76 ± 7.27%; Fine Particle Fraction (%) [3, 7]: 1.41 ± 0.57%; MMAD [3, 7]: 15.23 μm; Emitted Fraction (%) ([3]; Handihaler): 100%; Emitted dose ([3]; Handihaler): 86.92 mg; Fine Particle Dose ([3]; Handihaler): 3.33 mg; Fine Particle Fraction (%) ([3]; Handihaler): 3.33%; GSD ([3]; Handihaler): 5.28; MMAD ([3]; Handihaler): 68.4 μm; Respirable Dose ([3]; Handihaler): 37.24 mg; Respirable Fraction (%) ([3]; Handihaler): 8.9 ± 3.87%; Emitted Fraction (%) [3, 8]: 100 ± 2.03%; Fine Particle Fraction (%) [3, 8]: 3.83 ± 0.42%; MMAD [3, 8]: 68.4 μm; Emitted Fraction (%) ([3]; Neohaler): 88%; Emitted dose ([3]; Neohaler): 79.28 mg; Fine Particle Dose ([3]; Neohaler): 3.48 mg; Fine Particle Fraction (%) ([3]; Neohaler): 4.36%; MMAD ([3]; Neohaler): 43.73 μm; Respirable Dose ([3]; Neohaler): 25.19 mg; Respirable Fraction (%) ([3]; Neohaler): 14.87 ± 7.30%; Emitted Fraction (%) [3, 9]: 88.41 ± 6.70%; Fine Particle Fraction (%) [3, 9]: 4.36 ± 0.65%; MMAD [3, 9]: 43.73 μm; Particles deposited on the first NGI stage ([3]; in vitro aerosol stage deposition): above 90%; TEER (electrical resistance) ([4]; 3 hours after treatment): decreases drastically; TEER (electrical resistance) ([4]; seven days of culturing after treatment): resistance was regained; Right ventricle systolic pressure (RVSP) ([5]; Group 2 (Naive + TMP)): 20-25 mmHg and ~25 mmHg and 23.8990 mmHg and 24.7030 mmHg and 26.0550 mmHg and 19.6940 mmHg and 20.8110 mmHg and 24.2410 mmHg; Right ventricle systolic pressure (RVSP) ([5]; Group 5 (MCT + TMP), 4 weeks after MCT): 58.6830 mmHg and 62.4200 mmHg and 43.3890 mmHg and 59.8200 mmHg and 78.2010 mmHg and 70.5310 mmHg; Body weight ([5]; Group 5 (MCT + TMP), measured weekly): significant loss of weight; Decrease of RVSP relative to group 3 (MCT, 4 weeks) ([5]; Group 5, after two weeks of aerosol treatment): 20-30 mmHg; Effect on cell viability (A549 pulmonary cell line): didn't affect the cell viability; Amount of drug found not to be toxic to pulmonary cell lines (A549 pulmonary cell line; human, 72 h): up to 7 mg; Effect on cell viability (H358 pulmonary cell line): didn't affect the cell viability
